# According to US20190365906A1, “RANDOM COPOLYMER THERAPEUTIC AGENT CARRIERS AND ASSEMBLIES THEREOF” (University of Washington through its Center for …, priority 2013, published 2019):
# Test system: HeLa cells
# Test: Live-cell fluorescence microscopy of intracellular distribution of transferrin-polymer conjugates
# Type: cell-based, human
# Settings: 1 hour at 37° C.
# Protocol: The intracellular distribution of fluorescently labeled transferrin-polymer conjugates was evaluated in cells using live-cell fluorescence microscopy. Cells were seeded in chamber slides at a concentration of 5000 cells/well. After allowing the cells adhere for 18 hours the media was replaced with fresh media containing the appropriate concentration of the copolymer-transferrin conjugates. Thirty minutes prior to imaging Hoechst (5 μg/mL) was added to the media and allowed to incubate at 37° C. After this time, the media was carefully aspirated and replaced with PBS. Immediately prior to imaging individual wells were aspirated and then treated with 2 μL of a 10 mg/mL cell mask stock in 200 μL of ice cold PBS. After 3 minutes the PBS was removed and washed three times with additional ice cold PBS. The mediChamber slides were placed on a Live-Cell Fluorescence Microscope (Nikon Ti-E) equipped with an environmental control chamber. […] After image acquisition, image stacks were deconvolved using object-based measurement software, Velocity (Perkin Elmer), to remove out-of focus fluorescence for the identification of conjugate containing compartments. To deconvolved image stacks, point spread functions were calculated for the green, blue, and deep red channel and applied using 25 iterations to reach a near 100 percent confidence interval. […]
substance,measurement,value
fluorescently (ALEXA 488) labeled Transferrin,intracellular localisation of fluorescence,strongly localized within endosomes/lysosomes
